According to the NIST ThermoML archive (doi:10.1021/je700670k):

Settings: Liquid, Vibrating tube method

CCC[N+]1(C)CCCC1.O=S(=O)([N-]S(=O)(=O)C(F)(F)F)C(F)(F)F
mass density [kg/m3]
Settings	293.15 K	303.15 K	313.15 K	323.15 K	333.15 K	353.15 K	393.15 K
100 kPa	1438.6	1428.6	1418.6	1408.7	1399	1380	1343.2
1000 kPa	1439.3	1429.3	1419.3	1409.4	1399.7	1380.8	1344
2000 kPa	1440	1430	1420.1	1410.1	1400.5	1381.7	1344.9
3000 kPa	1440.7	1430.8	1420.9	1411	1401.4	1382.5	1345.8
4000 kPa	1441.4	1431.6	1421.7	1411.8	1402.2	1383.4	1346.8
5000 kPa	1442.1	1432.2	1422.5	1412.6	1403	1384.3	1347.8
7500 kPa	1444	1434.1	1424.3	1414.4	1405	1386.4	1350.2
10000 kPa	1445.8	1435.9	1426.3	1416.3	1407	1388.5	1352.5
15000 kPa	1449.2	1439.4	1429.9	1420.1	1410.8	1392.6	1357.1
20000 kPa	1452.6	1443	1433.4	1423.8	1414.6	1396.6	1361.5
25000 kPa	1456	1446.4	1436.9	1427.4	1418.3	1400.4	1365.8
30000 kPa	1459.2	1449.7	1440.3	1431	1421.9	1404.2	1370
35000 kPa	1462.3	1453	1443.6	1434.4	1425.4	1407.9	1374

CCCC[N+]1(C)CCCC1.O=S(=O)([N-]S(=O)(=O)C(F)(F)F)C(F)(F)F
mass density [kg/m3]
Settings	293.15 K	303.15 K	313.15 K	323.15 K	333.15 K	353.15 K	393.15 K
100 kPa	1409.1	1399.3	1389.5	1379.8	1370.2	1351.5	1315.2
1000 kPa	1409.7	1399.9	1390.1	1380.4	1370.9	1352.3	1316.1
2000 kPa	1410.5	1400.7	1390.9	1381.2	1371.7	1353.2	1317.1
3000 kPa	1411.2	1401.4	1391.7	1382	1372.5	1354.1	1318.1
4000 kPa	1411.9	1402.2	1392.5	1382.8	1373.4	1354.9	1319.1
5000 kPa	1412.6	1402.9	1393.3	1383.6	1374.2	1355.8	1320
7500 kPa	1414.4	1404.8	1395.2	1385.6	1376.1	1357.9	1322.5
10000 kPa	1416.1	1406.6	1397	1387.5	1378.1	1360	1324.8
15000 kPa	1419.6	1410.1	1400.7	1391.3	1382	1364.1	1329.5
20000 kPa	1423	1413.6	1404.3	1394.9	1385.8	1368.1	1333.7
25000 kPa	1426.3	1417	1407.7	1398.5	1389.5	1371.9	1338
30000 kPa	1429.6	1420.3	1411.1	1402	1393.1	1375.7	1342.2
35000 kPa	1432.8	1423.6	1414.4	1405.4	1396.6	1379.4	1346.2

CCn1cc[n+](C)c1.O=S(=O)([O-])C(F)(F)F [1-ethyl-3-methylimidazolium trifluoromethanesulfonate]
mass density [kg/m3]
Settings	293.15 K	303.15 K	313.15 K	323.15 K	333.15 K	353.15 K	393.15 K
100 kPa	1379.6	1370.2	1361.1	1352	1342.8	1325.3	1291.1
1000 kPa	1380	1370.7	1361.6	1352.5	1343.3	1325.9	1291.7
2000 kPa	1380.6	1371.5	1362.2	1353.2	1344	1326.6	1292.4
3000 kPa	1381.1	1372.1	1362.9	1353.8	1344.6	1327.2	1293.2
4000 kPa	1381.8	1372.7	1363.5	1354.4	1345.3	1327.9	1293.9
5000 kPa	1382.5	1373.2	1364.1	1355.1	1346	1328.6	1294.5
7500 kPa	1383.9	1374.6	1365.7	1356.7	1347.6	1330.3	1296.4
10000 kPa	1385.4	1376.1	1367.3	1358.2	1349.2	1332	1298.1
15000 kPa	1388.2	1379	1370.2	1361.2	1352.3	1335.3	1302
20000 kPa	1391	1381.9	1373.1	1364.2	1355.4	1338.5	1305.2
25000 kPa	1393.7	1384.7	1376	1367.2	1358.4	1341.9	1308.7
30000 kPa	1396.4	1387.5	1378.8	1370.1	1361.4	1344.8	1312
35000 kPa	1399.1	1390.2	1381.6	1372.9	1364.3	1347.8	1315.3

CCC[n+]1cccc(C)c1.O=S(=O)([N-]S(=O)(=O)C(F)(F)F)C(F)(F)F
mass density [kg/m3]
Settings	293.15 K	303.15 K	313.15 K	323.15 K	333.15 K	353.15 K	393.15 K
100 kPa	1454.9	1444.4	1433.9	1423.7	1413.6	1393.7	1354.8
1000 kPa	1455.6	1445.3	1434.8	1424.5	1414.4	1394.6	1355.8
2000 kPa	1456.4	1446.1	1435.6	1425.3	1415.3	1395.5	1356.9
3000 kPa	1457.1	1446.8	1436.4	1426.1	1416.1	1396.4	1357.9
4000 kPa	1457.9	1447.6	1437.3	1427	1417	1397.4	1359
5000 kPa	1458.7	1448.4	1438	1427.8	1417.8	1398	1360
7500 kPa	1460.5	1450.3	1440	1429.9	1419.8	1400.2	1362.5
10000 kPa	1462.4	1452.2	1441.9	1431.9	1421.9	1402.5	1365
15000 kPa	1466.1	1455.9	1445.7	1435.7	1425.9	1406.8	1369.7
20000 kPa	1469.6	1459.6	1449.5	1439.5	1429.9	1411	1374.3
25000 kPa	1473.1	1463.1	1453.1	1443.3	1433.7	1415.1	1378.8
30000 kPa	1476.5	1466.6	1456.7	1446.9	1437.4	1419	1383.2
35000 kPa	1479.8	1470	1460.3	1450.5	1441.1	1422.9	1387.5

CCC[N+]1(C)CCCCC1.O=S(=O)([N-]S(=O)(=O)C(F)(F)F)C(F)(F)F
mass density [kg/m3]
Settings	293.15 K	303.15 K	313.15 K	323.15 K	333.15 K	353.15 K	393.15 K
100 kPa	1416.9	1407.2	1397.4	1387.6	1377	1358.5	1322.3
1000 kPa	1417.6	1407.8	1398.1	1388.3	1377.8	1359.3	1323.2
2000 kPa	1418.3	1408.6	1398.9	1389.1	1378.6	1360.2	1324.3
3000 kPa	1419	1409.3	1399.5	1389.9	1379.3	1361.1	1325.3
4000 kPa	1419.6	1410	1400.2	1390.6	1380.1	1361.9	1326.2
5000 kPa	1420.3	1410.7	1401	1391.4	1380.9	1362.8	1327.3
7500 kPa	1422	1412.5	1402.8	1393.2	1382.8	1364.7	1329.7
10000 kPa	1423.8	1414.3	1404.7	1395.1	1384.8	1366.7	1331.8
15000 kPa	1427.1	1417.7	1408.2	1398.7	1388.5	1370.7	1336.3
20000 kPa	1430.4	1421.1	1411.7	1401.9	1392.3	1374.7	1340.7
25000 kPa	1433.7	1424.4	1415.1	1405	1396	1378.4	1344.8
30000 kPa	1436.8	1427.6	1418.4	1408.6	1399.5	1382.1	1348.9
35000 kPa	1439.9	1430.7	1421.7	1412.1	1403	1385.7	1353
